# Source: patent publication US11958865B1, “Leucine-rich repeat kinase 2 (LRRK2) inhibitors” (H. Lundbeck A/S, priority 2022, dated 2024)
# Where two headings read alike, the source gives them in different places.
# Tests used:
# [1] = molecular target: LRRK2 G2019S (Homo sapiens (Human), UniProt Q5S007, G2019S); test: LRRK2 G2019S LanthaScreen TR-FRET kinase activity assay; format: biochemical; settings: 250 pM kinase, 1.3 mM ATP, n≥2 tests
# Experimental: (§1) LRRK2 kinase activity was measured using a LanthaScreen kinase activity assay available from Invitrogen (Life Technologies Corporation). […] The phosphorylated peptide is recognized by a terbium-labelled phospho-specific anti-LRRKtide antibody (pLRRKtide antibody), obtainable from Life Technologies Corporation) and, subsequently, the phosphorylated LRRKtide can be quantified by the extent of TR-FRET between the terbium donor and fluorescein acceptor.
# (§2) As discussed above, this mutation increases the kinase activity relative to the wild type. The kinase reactions were performed in a 20 μL volume in 384-well plates. The kinase reaction buffer consisted of 50 mM Tris pH 8.5, 0.01% BRIJ-35, 10 mM MgCl2, 1 mM EGTA, and 2 mM DTT.
# (§3) The mixture was further incubated for 30 minutes at RT. TR-FRET was measured by excitation of the terbium-donor with 340 nm light and subsequent (delay time […]) measurement of terbium and fluorescein emission at 495 nm and 520 nm, respectively, over a time window of […]. The measurement was repeated 30 times for fluorescein and 30 times for terbium emission with a […] between repeats. TR-FRET measurements were performed on a Biotek Synergy plate. The TR-FRET signal was calculated as the emission-ratio at 520 nm over 495 nm.
# (§4) Test compound potency (IC50) was estimated by nonlinear regression using the sigmoidal dose-response (variable slope) using Xlfit 4 (IDBS, Guildford, Surrey, UK, model 205). Were the IC50 could not be determined the % inhibition at the highest tested concentration is given by equation 1. Equation (1): y=(A+((B−A)/(1+((C/x)^D)))) (1)
# (§5) where y is the normalized TR-TRET ratio measurement for a given concentration of test compound, x is the concentration of test compound, A is the estimated efficacy (% inhibition) at infinite compound dilution, and B is the maximal efficacy (% inhibition). C is the IC50 value and D is the Hill slope coefficient. IC50 estimates were obtained from independent experiment and the logarithmic average was calculated.
# [2] = molecular target: T1, LRRK2 WT (Homo sapiens (Human), UniProt Q5S007); test: LRRK2 wild-type LanthaScreen TR-FRET kinase activity assay; format: biochemical; settings: 1 nM kinase, 1.3 mM ATP, n≥2 tests
# Experimental: as §1, §2, §3, §4, §5
# [3] = Fraction unbound in rat plasma and brain homogenate by equilibrium dialysis; format: in vitro ADME, male Sprague-Dawley rat; settings: 1 μM, equilibrium dialysis 5 h at 37° C.
# Experimental: The fraction of unbound compound in male Sprague-Dawley rat plasma (fuplasma) and brain homogenate (fubrain) were determined by equilibrium dialysis using 96-well HTD-dialysis plates with dialysis membranes (molecular weight cut off 12-14 KDa). One side of the HTD-dialysis plate was loaded with matrix (plasma or brain homogenate) and the other side with buffer (100 mM sodium phosphate buffer, pH 7.4). Test compounds were dissolved in DMSO then spiked (5 μL of 0.2 mM) into blank (995 μL) plasma or diluted brain homogenate (1:4 ratio in phosphate buffer) giving a final nominal concentration 1 μM (≤0.5% DMSO). The matrices were loaded into respective chambers and equilibrated against phosphate buffer for 5 h at 37° C. (in a humidified air incubator with 5% CO2 with shaking). Samples from both chambers (buffer and plasma or brain homogenate) were aliquoted to fresh 96-well polypropylene plates then matrix matched using an equal volume of opposite blank matrix before extraction with cold solvent (3 volumes acetonitrile) containing an appropriate bioanalytical internal standard. After centrifugation (20 min, 3200 g, 4° C.) the supernatants were diluted with appropriate volumes of water and compound concentrations were quantified by LC/MS-MS against matrix matched calibration standards. The fuplasma and fubrain were calculated according to equation 4 below.
# [formula] Where [F] is the compound concentration on the buffer (receiver) side of the membrane; [T] is the compound concentration on the plasma or brain (donor) side of the membrane; D is the matrix dilution factor which is determined as D=4 for brain matrix and D=1 for plasma matrix in these assays.
# [4] = molecular target: T1, LRRK2 WT; test: LRRK2 wild-type ADP-Glo kinase assay; format: biochemical; settings: read-out: LRRK2 WT ADPGlo IC50
# Experimental: LRRK2 kinase activity was measured using an ADP-Glo kinase assay from Promega Corporation. The assay is a homogeneous luminescence-based assay that measures ADP formed from a kinase reaction. The ADP is converted into ATP, which is used to generate light in a luciferase reaction. The luminescence generated correlates with kinase activity.
# The LRRK2 kinase was obtained from Invitrogen (Life Technologies Corporation) and comprises residue 970 to 2527 of the full length human wild-type LRRK2 kinase. The kinase reactions were performed in a 10 μL volume in 384-well plates. The kinase reaction buffer consisted of 50 mM Tris pH 8.5, 0.01% BRIJ-35, 10 mM MgCl2, 1 mM EGTA, and 2 mM DTT.
# The reaction mixture (10 μl total volume) was incubated for 3 hours at room temperature (RT, ca. 25° C.), before the reaction was terminated by addition of 10 μl ADP-Glo reagent. The mixture was further incubated for 60 minutes at RT before addition of 20 μl Kinase detection reagent from the ADP-Glo assay kit. Luminescence signal was measure on a BMG Labtech Pherastar FSX multimode microplate reader. The signal integration time was 0.5 s.
# Test compound potency (Ki,app) was estimated by nonlinear regression using the tight-binding fit model in GeneData Screener (GeneData AG). In cases where the Ki,app could not be determined, the % inhibition at the highest tested concentration is reported. The tight-binding fit model is given by euquation (2). […] Ki,app is the apparent dissociation constant of the inhibitor. The IC50 can be calculated as given by equation (3). Equation (3): IC50=Ki,app+[E]/2 (3) IC50 estimates were obtained from independent experiment and the logarithmic average was calculated.
# [5] = Hepatic microsomal intrinsic clearance assay; format: in vitro ADME; settings: pooled liver microsomes, pH 7.4; liver microsomes 0.5 mg/mL; 1 μM; NADPH; 1 hour at 37° C.; LLOQ 0.36 L/h/kg
# Experimental: Compounds (final concentration 1 μM, 1% organic) of the invention were incubated for 1 hour at 37° C., with shaking, in phosphate buffer (pH 7.4) containing commercially sourced pooled liver microsomes (final concentration 0.5 mg/mL). […] At designated time points (0, 5, 10, 20, 30 and 60 minutes) ice-cold acetonitrile containing internal standard (300 μL) was added to an incubation well to stop the reaction then mixed and centrifuged (3220 g for 20 minutes at 4° C.). Supernatant was diluted (1:4) with deionized water then analyzed by LC-MS/MS.
# [6] = Rat brain disposition after oral gavage; format: in vivo, male Sprague-Dawley rats; settings: male, Sprague-Dawley, oral 10 mg/kg, 0.5 h, mean ± stdev
# Experimental: Brain disposition was evaluated in male Sprague-Dawley rats (n=3, standard body weight). Briefly, test compound was formulated as a simple suspension (0.5% HPMC in water) then administered by oral gavage (10 mg/kg, 10 mL/kg or 5 mg/kg, 10 mL/kg). At the designated time point (0.5 or 1 h post dose) rats were sacrificed and terminal blood and brain samples taken. Isolated plasma and brain homogenates were extracted by standard protein precipitation in acetonitrile, containing internal standard. Diluted extracts were analyzed by liquid-chromatography coupled with tandem mass spectrometry detection (LC-MS/MS) using a bioanalytical method. Concentrations of test compound in plasma and brain were quantified against matrix matched calibration standards. The total plasma and brain concentration time data are presented in Table 4 alongside the calculated brain Kp (total brain concentration:total plasma concentration ratio).
# The total brain-to-plasma partition coefficient (brain Kp) is given by the ratio of the total brain concentration and total plasma concentration of the compound according to the equation below: […]
# Based on the measured rat fuplasma and fubrain values and the brain Kp the unbound brain-to-plasma partition coefficient (brain Kp,uu for each compound was calculated. The Kp,uu parameter describes the extent of brain penetration for each compound, i.e. the parameter gives a direct quantitative description of how the blood-brain barrier (BBB) handles the compounds regarding passive transport and active influx/efflux. The brain Kp,uu is given by the equation below: […]
# [7] = 0.5 nM kinase, 1.0 mM ATP, IC50=Ki,app+[E]/2, n≥2 tests
# T1 sequence (Q5S007 970-2527): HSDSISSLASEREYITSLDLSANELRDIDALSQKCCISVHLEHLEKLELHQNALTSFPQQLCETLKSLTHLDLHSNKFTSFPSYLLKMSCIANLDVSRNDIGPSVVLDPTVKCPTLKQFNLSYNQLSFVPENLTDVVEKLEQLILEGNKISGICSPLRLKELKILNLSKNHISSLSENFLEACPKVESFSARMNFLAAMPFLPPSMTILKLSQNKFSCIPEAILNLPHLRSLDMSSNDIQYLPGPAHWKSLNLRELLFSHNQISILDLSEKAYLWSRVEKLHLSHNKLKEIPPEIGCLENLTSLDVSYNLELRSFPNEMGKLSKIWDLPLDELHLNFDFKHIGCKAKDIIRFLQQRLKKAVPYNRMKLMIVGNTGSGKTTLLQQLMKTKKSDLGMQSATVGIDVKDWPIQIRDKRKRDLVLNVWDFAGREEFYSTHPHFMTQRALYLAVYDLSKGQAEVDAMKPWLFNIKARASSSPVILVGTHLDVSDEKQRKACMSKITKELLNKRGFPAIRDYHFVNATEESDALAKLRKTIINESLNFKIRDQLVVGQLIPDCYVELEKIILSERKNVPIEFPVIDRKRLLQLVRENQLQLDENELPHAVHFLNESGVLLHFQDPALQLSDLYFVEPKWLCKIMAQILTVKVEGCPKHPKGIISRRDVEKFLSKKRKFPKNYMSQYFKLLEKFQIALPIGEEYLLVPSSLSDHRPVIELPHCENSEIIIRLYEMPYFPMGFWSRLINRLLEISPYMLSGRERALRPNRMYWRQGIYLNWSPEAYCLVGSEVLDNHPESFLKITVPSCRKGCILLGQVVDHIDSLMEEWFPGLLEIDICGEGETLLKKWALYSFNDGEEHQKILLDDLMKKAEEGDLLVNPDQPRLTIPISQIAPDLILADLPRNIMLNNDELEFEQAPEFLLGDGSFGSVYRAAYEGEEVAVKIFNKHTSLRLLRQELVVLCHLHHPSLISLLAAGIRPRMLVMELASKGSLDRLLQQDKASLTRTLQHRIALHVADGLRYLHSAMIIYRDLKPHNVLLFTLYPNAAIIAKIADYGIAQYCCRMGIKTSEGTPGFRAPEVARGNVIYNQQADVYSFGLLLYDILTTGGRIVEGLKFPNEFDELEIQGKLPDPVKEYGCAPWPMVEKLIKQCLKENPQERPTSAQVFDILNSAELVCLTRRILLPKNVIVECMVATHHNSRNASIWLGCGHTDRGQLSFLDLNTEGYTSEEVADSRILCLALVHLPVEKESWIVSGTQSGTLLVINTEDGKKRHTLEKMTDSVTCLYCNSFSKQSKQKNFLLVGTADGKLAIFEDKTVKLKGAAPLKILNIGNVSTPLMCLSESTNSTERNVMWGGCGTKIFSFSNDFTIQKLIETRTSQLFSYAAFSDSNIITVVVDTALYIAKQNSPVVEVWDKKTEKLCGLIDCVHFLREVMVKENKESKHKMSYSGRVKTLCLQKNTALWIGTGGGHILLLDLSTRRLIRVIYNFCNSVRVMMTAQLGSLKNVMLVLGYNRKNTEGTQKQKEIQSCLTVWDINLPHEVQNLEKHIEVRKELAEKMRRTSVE
# LRRK2 G2019S, sequence (Q5S007 970-2527 G2019S): as the sequence (Q5S007 970-2527) above, with G1050S counted along it
Structure (SMILES),IC50 [1],IC50 [2],"IC50 [4, 7]",CLint scaled at 1 μM [5],also measured
"CCOc1ncccc1-n1nc2c(c1C)Nc1ncc3c(Cl)nn(c3n1)CCCO2 [Example 2, 8-Chloro-2-(2-ethoxypyridin-3-yl)-3-methyl-2,4,12,13-tetrahydro-11H-5,7-(azenometheno)dipyrazolo[3,4-b:5′,1′-g][1]oxa[4,6,8]triazacycloundecine]",350 pM,980 pM,280 pM,20.8 mL/min/kg,"fubrain (% free) ([3]; rat brain homogenate): 2.7 % free; fuplasma (% free) ([3]; rat plasma): 9.7 % free; Kp at 0.5 h ([6]; brain, n=3): 1.2 ± 0.7; Kp uu at 0.5 h ([6]; brain, n=3): 0.35 ± 0.18; concentration at 0.5 h ([6]; brain, n=3, read-out: Total brain concentration): 31 ± 11 ng/g; concentration at 0.5 h ([6]; plasma, n=3, read-out: Total plasma concentration): 32 ± 18 ng/mL"
"CCc1ncccc1-n1nc2c(c1C)Nc1ncc3c(Cl)nn(c3n1)CCCO2 [Example 4, 8-Chloro-2-(2-ethylpyridin-3-yl)-3-methyl-2,4,12,13-tetrahydro-11H-5,7-(azenometheno)dipyrazolo[3,4-b:5′,1′-g][1]oxa[4,6,8]triazacycloundecine]",1800 pM,7000 pM,820 pM,23.8 mL/min/kg,
"Cc1c2c(nn1-c1cccnc1C(F)(F)F)OCCCn1nc(Cl)c3cnc(nc31)N2 [Example 17, 8-Chloro-3-methyl-2-(2-(trifluoromethyl)pyridin-3-yl)-2,4,12,13-tetrahydro-11H-5,7-(azenometheno)dipyrazolo[3,4-b:5′,1′-g][1]oxa[4,6,8]triazacycloundecine]",5500 pM,20000 pM,3100 pM,15.3 mL/min/kg,
"Cc1c2c(nn1-c1cccnc1OC(F)(F)F)OCCCn1nc(Cl)c3cnc(nc31)N2 [Example 20, 8-Chloro-3-methyl-2-(2-(trifluoromethoxy)pyridin-3-yl)-2,4,12,13-tetrahydro-11H-5,7-(azenometheno)dipyrazolo[3,4-b:5′,1′-g][1]oxa[4,6,8]triazacycloundecine]",1100 pM,3400 pM,480 pM,18.3 mL/min/kg,
"COc1nnccc1-n1nc2c(c1C)Nc1ncc3c(Cl)nn(c3n1)CCCO2 [Example 21, 8-Chloro-2-(3-methoxypyridazin-4-yl)-3-methyl-2,4,12,13-tetrahydro-11H-5,7-(azenometheno)dipyrazolo[3,4-b:5′,1′-g][1]oxa[4,6,8]triazacycloundecine]",240 pM,940 pM,450 pM,25.7 mL/min/kg,
"[2H]C([2H])([2H])c1c2c(nn1-c1cccnc1C)OCCCn1nc(Cl)c3cnc(nc31)N2 [Example 26, 8-Chloro-3-(methyl-d3)-2-(2-methylpyridin-3-yl)-2,4,12,13-tetrahydro-11H-5,7-(azenometheno)dipyrazolo[3,4-b:5′,1′-g][1]oxa[4,6,8]triazacycloundecine]",,,,11.7 mL/min/kg,
"[2H]C([2H])([2H])c1c2c(nn1-c1cc(C)cnc1C)OCCCn1nc(Cl)c3cnc(nc31)N2 [Example 27, 8-Chloro-2-(2,5-dimethylpyridin-3-yl)-3-(methyl-d3)-2,4,12,13-tetrahydro-11H-5,7-(azenometheno)dipyrazolo[3,4-b:5′,1′-g][1]oxa[4,6,8]triazacycloundecine]",,,,8.17 mL/min/kg,
"[2H]C([2H])([2H])c1c2c(nn1-c1cccnc1OC)OCCCn1nc(Cl)c3cnc(nc31)N2 [Example 28, 8-Chloro-2-(2-methoxypyridin-3-yl)-3-(methyl-d3)-2,4,12,13-tetrahydro-11H-5,7-(azenometheno)dipyrazolo[3,4-b:5′,1′-g][1]oxa[4,6,8]triazacycloundecine]",230 pM,760 pM,,10.2 mL/min/kg,IC50 [4]: 630 pM
"[2H]C([2H])([2H])c1c2c(nn1-c1cc(F)cnc1C)OCCCn1nc(Cl)c3cnc(nc31)N2 [Example 30, 8-Chloro-2-(5-fluoro-2-methylpyridin-3-yl)-3-(methyl-d3)-2,4,12,13-tetrahydro-11H-5,7-(azenometheno)dipyrazolo[3,4-b:5′,1′-g][1]oxa[4,6,8]triazacycloundecine]",,,,14 mL/min/kg,
